Measured values published in publication PMC11410943 (Nature Communications, 2024).
≈ marks a conversion by molar mass, not a printed value. Read-outs that look alike come from different tables or passages of the source.

Experiments:
[1] = tested on: Escherichia coli; assay: MIC
[2] = Hepatocyte stability / intrinsic clearance; assay type: in vitro ADME, rat
[3] = tested on: K. pneumoniae; assay: Neutropenic rat lung infection model; conditions: IV infusion, MDR isolates
[4] = Hepatocyte stability / intrinsic clearance; assay type: in vitro ADME, dog
[5] = First-in-human SAD study, safety and tolerability; assay type: in vivo, healthy human volunteers; conditions: single IV infusion 120-1050 mg
[6] = biological target: P-glycoprotein (P-gp) (Homo sapiens, UniProt P08183); assay: P-gp substrate determination; assay type: in vitro ADME
Chain of P-glycoprotein (P-gp) (P08183 whole entry, the tested form may be a part): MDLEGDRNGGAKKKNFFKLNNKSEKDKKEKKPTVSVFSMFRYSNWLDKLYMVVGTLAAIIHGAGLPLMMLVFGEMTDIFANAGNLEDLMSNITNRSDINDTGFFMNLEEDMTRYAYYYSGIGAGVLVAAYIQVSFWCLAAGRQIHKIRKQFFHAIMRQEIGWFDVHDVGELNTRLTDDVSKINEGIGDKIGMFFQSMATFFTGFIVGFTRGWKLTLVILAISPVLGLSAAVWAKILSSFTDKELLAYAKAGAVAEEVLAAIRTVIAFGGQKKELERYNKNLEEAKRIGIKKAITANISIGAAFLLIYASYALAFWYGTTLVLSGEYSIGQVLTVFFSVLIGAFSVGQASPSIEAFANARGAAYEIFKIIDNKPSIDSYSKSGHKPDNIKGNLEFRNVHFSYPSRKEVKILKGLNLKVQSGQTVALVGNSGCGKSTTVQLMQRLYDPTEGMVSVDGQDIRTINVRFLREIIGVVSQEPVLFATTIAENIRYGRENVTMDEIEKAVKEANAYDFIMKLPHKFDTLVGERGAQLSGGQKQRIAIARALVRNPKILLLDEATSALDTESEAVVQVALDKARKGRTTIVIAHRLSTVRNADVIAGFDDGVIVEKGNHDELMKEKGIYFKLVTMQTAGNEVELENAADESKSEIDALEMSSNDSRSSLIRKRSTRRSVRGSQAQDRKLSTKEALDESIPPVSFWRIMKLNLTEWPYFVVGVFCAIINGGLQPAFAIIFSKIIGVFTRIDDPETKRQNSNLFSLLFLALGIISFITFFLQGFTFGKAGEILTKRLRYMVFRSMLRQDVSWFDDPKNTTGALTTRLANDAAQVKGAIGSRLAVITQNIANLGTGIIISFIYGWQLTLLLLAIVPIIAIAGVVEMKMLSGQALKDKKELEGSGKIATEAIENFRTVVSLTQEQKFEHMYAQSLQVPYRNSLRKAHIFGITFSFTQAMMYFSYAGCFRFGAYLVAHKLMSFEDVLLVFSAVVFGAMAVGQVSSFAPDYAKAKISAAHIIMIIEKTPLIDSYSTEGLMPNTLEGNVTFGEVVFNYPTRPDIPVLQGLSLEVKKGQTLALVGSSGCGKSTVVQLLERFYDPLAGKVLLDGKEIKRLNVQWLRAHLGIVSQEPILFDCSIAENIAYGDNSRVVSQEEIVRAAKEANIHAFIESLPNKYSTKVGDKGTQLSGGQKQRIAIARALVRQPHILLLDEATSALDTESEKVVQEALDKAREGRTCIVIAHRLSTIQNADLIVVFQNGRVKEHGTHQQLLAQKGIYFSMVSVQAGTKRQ

[7] = tested on: E. coli; assay: Neutropenic rat lung infection model; assay type: in vivo; conditions: IV infusion, MDR isolates
[8] = MAD study C002-2023-01; assay type: in vivo, healthy human volunteers; conditions: 240 mg, two subjects
[9] = tested on: P. aeruginosa; assay: Neutropenic rat lung infection model; conditions: IV infusion, MDR isolates
[10] = tested on: Stenotrophomonas maltophilia; assay: MIC; conditions: IHMA/CARB-X MDR clinical isolates 2019, N=150
[11] = Partitioning into red blood cells; assay type: in vitro ADME
[12] = tested on: A. baumannii; assay: Neutropenic mouse; assay type: in vivo; conditions: SC every 8 h, wild-type and MDR isolates
[13] = tested on: E. coli; assay: Neutropenic mouse; assay type: in vivo; conditions: SC every 8 h, wild-type and MDR isolates
[14] = tested on: K. pneumoniae; assay: Killing kinetics assay; assay type: cell-based; conditions: 0.5X to 16X MIC, susceptible and MDR strains
[15] = Dog 14-day GLP toxicology; assay type: in vivo
[16] = tested on: Acinetobacter baumannii; assay: MIC; conditions: Acinetobacter baumannii
[17] = IVIVE of clearance in humans; parameters: species or system human
[18] = Dog cardiovascular study; assay type: in vivo
[19] = tested on: Morganella morganii; assay: MIC; conditions: IHMA/CARB-X MDR clinical isolates 2019, N=42
[20] = tested on: A. baumannii; assay type: cell-based
[21] = tested on: other cardiac ion channels; assay: Other cardiac ion channels; assay type: cell-based
[22] = tested on: P. aeruginosa; assay: Killing kinetics assay; assay type: cell-based; conditions: 0.5X to 16X MIC, susceptible and MDR strains
[23] = tested on: E. faecalis / E. faecium; assay: MIC
[24] = tested on: K. pneumoniae; assay: Neutropenic mouse; assay type: in vivo; conditions: SC every 8 h, wild-type and MDR isolates
[25] = Bile duct cannulation / excretion study in rats; assay type: in vivo, Sprague-Dawley rats
[26] = biological target: bile salt export pump (BSEP) (Homo sapiens, UniProt O95342); assay: BSEP inhibition and substrate determination; assay type: in vitro ADME; conditions: up to 50 µM
Chain of bile salt export pump (BSEP) (O95342 whole entry, species assumed): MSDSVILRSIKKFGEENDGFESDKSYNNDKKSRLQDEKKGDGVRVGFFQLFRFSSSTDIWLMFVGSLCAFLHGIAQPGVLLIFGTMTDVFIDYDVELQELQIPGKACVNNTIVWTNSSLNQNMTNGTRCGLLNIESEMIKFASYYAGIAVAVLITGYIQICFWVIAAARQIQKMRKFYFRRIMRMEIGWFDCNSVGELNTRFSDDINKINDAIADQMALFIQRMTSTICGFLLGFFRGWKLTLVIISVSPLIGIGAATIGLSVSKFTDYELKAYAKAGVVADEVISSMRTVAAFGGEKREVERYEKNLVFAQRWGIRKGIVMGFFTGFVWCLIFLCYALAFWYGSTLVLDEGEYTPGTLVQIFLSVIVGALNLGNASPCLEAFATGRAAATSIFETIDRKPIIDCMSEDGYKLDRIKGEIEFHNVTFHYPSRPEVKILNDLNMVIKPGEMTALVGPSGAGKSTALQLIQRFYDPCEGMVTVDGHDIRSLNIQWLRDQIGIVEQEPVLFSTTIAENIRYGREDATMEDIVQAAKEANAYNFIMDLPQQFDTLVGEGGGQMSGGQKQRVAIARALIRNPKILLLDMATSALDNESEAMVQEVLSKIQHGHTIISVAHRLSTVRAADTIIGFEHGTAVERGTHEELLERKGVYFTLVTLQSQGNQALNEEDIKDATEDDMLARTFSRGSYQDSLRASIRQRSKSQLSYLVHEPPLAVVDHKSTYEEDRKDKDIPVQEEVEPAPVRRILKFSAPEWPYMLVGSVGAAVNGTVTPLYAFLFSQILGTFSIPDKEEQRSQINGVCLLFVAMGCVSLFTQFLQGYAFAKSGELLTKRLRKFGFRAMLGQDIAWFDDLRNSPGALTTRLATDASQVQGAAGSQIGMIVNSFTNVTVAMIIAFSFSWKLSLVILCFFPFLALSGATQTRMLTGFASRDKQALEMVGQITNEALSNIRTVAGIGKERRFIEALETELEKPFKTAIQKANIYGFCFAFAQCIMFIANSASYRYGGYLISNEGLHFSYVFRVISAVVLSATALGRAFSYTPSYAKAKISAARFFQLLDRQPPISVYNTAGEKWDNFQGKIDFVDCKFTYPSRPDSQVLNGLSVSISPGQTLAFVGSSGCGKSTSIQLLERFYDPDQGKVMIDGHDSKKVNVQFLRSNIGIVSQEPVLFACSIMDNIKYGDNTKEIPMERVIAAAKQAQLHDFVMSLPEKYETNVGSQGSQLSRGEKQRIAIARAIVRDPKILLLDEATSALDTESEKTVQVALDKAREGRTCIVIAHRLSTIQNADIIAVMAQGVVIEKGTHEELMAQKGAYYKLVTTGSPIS

[27] = tested on: E. cloacae; assay type: cell-based
[28] = tested on: Enterococcus faecalis; assay: MIC; conditions: read-out: median MIC
[29] = tested on: P. aeruginosa
[30] = tested on: diverse Gram-negative pathogens
[31] = Permeability; assay type: in vitro ADME
[32] = tested on: Proteus spp.; assay: MIC; conditions: IHMA/CARB-X MDR clinical isolates 2019, N=152
[33] = tested on: A. baumannii; conditions: in vivo, iv
[34] = tested on: Neisseria gonorrhoeae; assay: MIC; conditions: IHMA/CARB-X isolates 1997 to 2021, N=90
[35] = tested on: Citrobacter spp.; assay: MIC; conditions: IHMA/CARB-X MDR clinical isolates 2019, N=151
[36] = biological target: CYP3A4 (Homo sapiens, UniProt P08684); assay: CYP reaction phenotyping; assay type: in vitro ADME
Chain of CYP3A4 (P08684 whole entry): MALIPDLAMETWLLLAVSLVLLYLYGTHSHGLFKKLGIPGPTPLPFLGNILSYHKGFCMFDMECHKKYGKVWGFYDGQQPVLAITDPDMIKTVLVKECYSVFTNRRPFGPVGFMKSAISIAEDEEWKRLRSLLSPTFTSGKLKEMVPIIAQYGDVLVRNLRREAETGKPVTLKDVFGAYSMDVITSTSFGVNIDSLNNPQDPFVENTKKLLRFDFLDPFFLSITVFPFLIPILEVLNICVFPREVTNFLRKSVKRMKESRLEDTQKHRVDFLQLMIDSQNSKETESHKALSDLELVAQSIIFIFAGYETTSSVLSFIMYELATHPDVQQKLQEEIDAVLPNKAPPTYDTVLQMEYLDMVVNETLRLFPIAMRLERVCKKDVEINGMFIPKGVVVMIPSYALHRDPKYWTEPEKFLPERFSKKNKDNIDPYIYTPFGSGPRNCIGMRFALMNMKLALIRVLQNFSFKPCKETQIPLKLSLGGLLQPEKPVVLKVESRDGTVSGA

[37] = tested on: P. mirabilis; assay: MIC; conditions: Proteus mirabilis, read-out: median MIC
[38] = Prediction of human PK by allometry / 2-compartment model; conditions: 70 kg
[39] = Hepatocyte stability / intrinsic clearance; assay type: in vitro ADME, monkey
[40] = Rat 14-day GLP toxicology / toxicokinetics; assay type: in vivo
[41] = tested on: E. coli; assay: Killing kinetics assay; assay type: cell-based; conditions: 0.5X to 16X MIC, susceptible and MDR strains
[42] = tested on: Staphylococcus aureus; assay: MIC

With `Cn1c(=O)ccc2ccc(F)c(CCNC[C@H]3CN(c4cnc5c(n4)NC(=O)CO5)C(=O)O3)c21` [BWC0977, 6-[(5S)−5-[[[2-(7-Fluoro-1,2-dihydro-1-methyl-2-oxo-8-quinolinyl)ethyl]amino]methyl]−2-oxo-3-oxazolidinyl]−2H-pyrazino[2,3-b]−1,4-oxazin-3(4H)-one] the MIC ([1]; Escherichia coli, read-out: median MIC, panel of ATCC strains) was 0.03 µg/mL (≈ 0.064 µM), the MIC90 ([1]; IHMA/CARB-X MDR clinical isolates 2019, N=300) was 0.5 µg/mL (≈ 1.07 µM) and the “clearance predicted from CLint, % of liver blood flow (LBF)” value (shortened to “clearance predicted from CLint, %”) [2] was under 30%. The dose-response efficacy [3] was “excellent bactericidal dose-response”, the “clearance predicted from CLint, %” value [4] was under 30% and the tolerability [5] was “generally well tolerated”. For the same compound, the P-gp substrate status [6] was “substrate”, the dose-response efficacy [7] was “excellent bactericidal dose-response” and the systemic adverse events [8] was “no systemic adverse events”. The “infusion site finding on ultrasound” value ([8]; 12/14 and 14/14 doses) was “small non-occlusive thrombus proximal to the infusion site in both volunteers”, the dose-response efficacy [9] was “excellent bactericidal dose-response” and the MIC90 [10] was 0.25 µg/mL (≈ 0.534 µM). The “partitioning into red blood cells” value [11] was “neither partitions into red blood cells”, the “dose-ranging efficacy (bacterial burden)” value [12] was “excellent dose-response” and the “dose-ranging efficacy (bacterial burden)” value [13] was “excellent dose-response”. For the same compound, the “in vitro killing kinetics” value [14] was “significant bactericidal activity”, the microscopic findings ([15]; dose levels above 40 mg/kg/day) was “Microscopic changes consistent with hepatobiliary toxicity” and the NOAEL at 14 day ([15]; in vivo) was 40 mg/kg/day. The AUC(0-t) ([15]; in vivo, 40 mg/kg/day) was 90000 ng·h/mL, the Cmax ([15]; in vivo, 40 mg/kg/day) was 25000 ng/mL and the MIC90 ([16]; IHMA/CARB-X MDR clinical isolates 2019, N=298) was 1 µg/mL (≈ 2.13 µM). The MIC ([16]; read-out: median MIC, panel of ATCC strains) was 0.06 µg/mL (≈ 0.128 µM), the “predicted human plasma CLp” value [17] was 5.5 mL/min/kg and the “predicted % human LBF” value ([17]; human LBF […]) was 28%. The “increase in QTc” value ([18]; 1-hour infusion of 30 or 60 mg/kg, within 3−6 h) was 4 to 11 ms, the heart rate ([18]; 30 and 60 mg/kg) was “notable increase in heart rate” and the MIC90 [19] was 1 µg/mL (≈ 2.13 µM). The MIC90 ([19]; Morganella morganii) was 1 µg/mL (≈ 2.13 µM), the “in vitro killing kinetics” value [20] was “significant bactericidal activity” and the “concentration up to which other cardiac ion channels are not inhibited” value [21] was over 300 µM. The “in vitro killing kinetics” value [22] was “significant bactericidal activity”, the MIC90 [23] was 0.06 µg/mL (≈ 0.128 µM) and the “dose-ranging efficacy (bacterial burden)” value [24] was “excellent dose-response”. The “total dose observed unchanged in the bile” value [25] was “about 1.5%”, the “BSEP substrate / inhibitor status” value [26] was “neither a substrate nor an inhibitor” and the “in vitro killing kinetics” value [27] was “significant bactericidal activity”. The MIC [28] was 0.06 µg/mL (≈ 0.128 µM), the “in vitro resistance frequency” value [29] was < 1 × 10^−9 and the resistance frequency [29] was < 1 × 10^−9. The spontaneous resistance frequency [30] was < 10^−9, the permeability [31] was “low permeability” and the MIC90 [32] was 0.5 µg/mL (≈ 1.07 µM). For the same compound, the dose-response efficacy [33] was “excellent bactericidal dose-response”, the MIC90 [34] was at most 0.016 µg/mL and the MIC90 [35] was 1 µg/mL (≈ 2.13 µM). The “metabolism by CYP3A4 in reaction phenotyping assay” value [36] was 80%, the MIC [37] was 0.12 µg/mL (≈ 0.256 µM) and the “predicted human CL” value [38] was 20.17 L/h. For the same compound, the “predicted human CLD2” value [38] was 1.002 L/h, the “predicted human V1” value [38] was 40.84 L and the “predicted human V2” value [38] was 23.13 L. For the same compound, the “clearance predicted from CLint, %” value [39] was under 30%, the “AUC0–24 at NOAEL” value ([40]; 75 mg/kg/day) was 52000 ng·h/mL and the NOAEL at 14 day ([40]; in vivo) was 75 mg/kg/day. For the same compound, the Cmax ([40]; in vivo, 75 mg/kg/day) was 26000 ng/mL, the AUC(0-t) ([40]; in vivo, 250 mg/kg/day, AUC0–24 at highest dose level) was 355000 ng·h/mL and the microscopic findings ([40]; up to 250 mg/kg/day) was “no microscopic findings”. The “in vitro killing kinetics” value [41] was “significant bactericidal activity”, the MIC ([42]; Staphylococcus aureus, read-out: median MIC) was 0.01 µg/mL (≈ 0.0213 µM) and the MIC90 ([42]; global panel, N=560, including MRSA) was 0.03 µg/mL (≈ 0.064 µM).
